{"source": "patent US4145337A", "about": "“Aminoethylglycine containing polypeptides” (Hoffmann-La Roche Inc., priority 1977, dated 1979)", "key": {"[1]": {"tested_on": "gastric secretion", "test": "Gastric antisecretory activity after intragastric administration, unanesthetized rat", "format": "in vivo", "settings": "8 mg/kg b.w. intragastrically, saline solution", "protocol": "The unanesthetized rat model was used in an exact manner to that employed in the evaluation of gastric antisecretory activity after parenteral administration described above in A, with the following modification. Following recording of the gastric pH for 1 hour, drainage of the gastric secretions was interrupted by means of a forceps. Saline solutions (total volume = 1000 μl) of Compound N (at the dose of 8 mg/kg b.w.) were then intragastrically administered, via the canula in the avascular stomach, which was closed. Fifteen minutes later, the catheter draining the gastric secretions was reopened; the water infusion through the catheter in the forestomach was simultaneously reestablished. The pH was now recorded continuously for 1 1/2 hours. Samples of gastric juice were taken before and after treatment, and analyzed for the usual four parameters of gastric secretion."}, "[2]": {"tested_on": "basal gastric acid secretion", "test": "Gastric antisecretory activity in unanesthetized gastric fistula rat, i.v.", "format": "in vivo", "settings": "200 μg i.v. single bolus", "protocol": "The gastric antisecretory effect of somatostatin analogs was studied in a model which utilizes unanesthetized rats.\nAll operative techniques were carried out on fasted female albino rats (average weight 250 g), under Penthrane anesthesia, using montraumatic microsurgical instruments, polyethylene tubing and a special adhesive. The basic model used in the present studies consisted of:\nThis allowed adequate hydration through the constant infusion of 0.15M NaCl (at the rate of 1.4 ml/hr.). This catheter was also used for i.v. administration of solutions of the test compounds.\n(b) Catheterization of the stomach. A cannula in the forestomach allowed washing of the gastric lumen with saline (before experiments). Water (0.2 ml/10 min) was infused through this catheter during the experimental periods. This was done to prevent obstruction of the \"collecting\" cannula (see below) by gastric debris and to obtain a practical workable volume to measure several parameters of gastric secretion. A second cannula was positioned in the glandular stomach, close to the greater curvature, in the more dependent site and in such a way as to allow collection, by gravity, of all fluids emerging from the stomach. Passage of these secretions through a small glass container permitted continuous recording of pH by means of a glass microelectrode. A fraction collector was used to simultaneously obtain the gastric secretions.\n(c) Catheterization of the lower part of the common bile duct to procure mixed secretions of bile and pancreatic juice as a function of time. This was done with the purpose of examining the effect of these compounds, if any, on bile flow.\nThis preparation is suitable for the bioassay of microgram quantities of gastric secretory depressants in which each animal serves as its own control. The rats (250 g b.w.) were allowed to attain a period of stabilized gastric acid output (for one hour) and were then injected intravenously (100 μl) with 200 μg of the test compound. This single bolus injection was immediately followed by a rinsing injection of 50 μl saline, thus insuring quantitative delivery of the dose. The pH was recorded continuously for 1 hour before and 1 1/2 hour after the i.v. injection of the test compounds. The gastric secretions were collected over 10-minute intervals before and after dosage. Four parameters of gastric secretion were evaluated: (a) changes in the negative logarithm of the hydrogen ion activity (pH, determined by the glass electrode either by a continuous trace or in samples taken at 10-minute intervals); (b) volume; (c) total acid concentration (μEq/ml); and d) total acid output (μEq/10-min periods)."}, "[3]": {"tested_on": "pentagastrin-induced gastric acid secretion", "settings": "Brown et al. 1977; cited from earlier work"}, "[4]": {"tested_on": "growth hormone, insulin and glucagon", "settings": "Brown et al. 1977; cited from earlier work"}, "[5]": {"tested_on": "gastrointestinal bleeding from residual ulcers", "settings": "patient, 250 μg i.v. bolus then 250 μg per hour for 67 hours; cited from earlier work"}, "[6]": {"tested_on": "duodenal ulcers produced by prolonged administration of pentagastrin or histamine", "settings": "cats, continuous i.v. infusion 0.62 to 5.0 μg/kg-hr; cited from earlier work"}, "[7]": {"tested_on": "gastric mucus production", "test": "Stimulation of mucoprotein production: gastric mucosal carbohydrates and total protein", "format": "in vivo, rat", "settings": "800 μg/kg i.p.", "protocol": "Overnight fasted rats received saline solutions of either Compound M or Compound A at the antisecretory dose of 800μg/kg administered intraperitoneally. Control rats were given only vehicle. All animals were sacrificed by decapitation 1 hour after dosing. After opening the abdomen the stomach was removed and its contents were washed away with 10 ml of a 0.85% NaCl solution. The excised stomachs were cut open along the greater curvature and the exposed gastric mucosa was carefully scraped. The scrapings were homogenized in 5 ml of the 0.85% NaCl solution and subjected to chemical analysis. Total hexoses were determined by the anthrone reaction, which is based on the formation in concentrated sulfuric acid of furfural derivatives which react with anthrone to form a blue-green color; this reaction has the advantage of being applied directly to the glycoprotein with color formation occuring concurrently with the liberation of sugars (Methods in Enzymology, Vol. VIII, pp. 4-5 1966). Fucose in the unhydrolyzed mucoprotein was determined by the Dische-Shettes cysteine-sulfuric acid reaction for methyl pentoses. This method allows accurate determination of fucose even in the presence of large amounts of hexoses and peptide material (Methods in Eznymology, Vol. VIII, pp 11-13 , 1966).\nTotal protein was determined using the Lowry method."}, "[8]": {"tested_on": "basal gastric secretion and gastrin release", "settings": "Bloom et al. 1974; cited from earlier work"}, "[9]": {"tested_on": "gastric secretion", "settings": "chronic fistula dog, Torchiana et al. 1977; cited from earlier work"}, "[10]": {"tested_on": "restraint-immersion induced gastric ulceration", "test": "Mouse restraint-immersion test, antiulcerogenic activity", "format": "in vivo", "protocol": "In both studies CD-1 male mice weighing between 18-25 g were used. The mice were fasted for 19 hours prior to the initiation of restraint-immersion which involved restraining animals in rubber hoses and immersion in water (21° C.) to the height of the xiphoid process. In the first study, just prior to the initiation of the restraint-immersion procedure, mice received, via the subcutaneous route, graded amounts (0.1 to 10 mg/kg b.w.) of somatostatin (Compound A), Compound F, or vehicle (5% acacia); this administration was repeated two hours later. In the second study, the compounds (Compound A, Compound L, or vehicle) were administered only once, just prior to the initiation of the restraint-immersion procedure. Following four hours of restraint-immersion the animals (both studies) were killed and their stomachs examined for ulceration. The degree of ulceration was determined by the amount of visible blood present in the stomach and was rated on a scale of 0 to 4, with 0 being no detectable blood and 4 being a massive amount of blood. All compounds were dispersed in 5% acacia and administered at a dosage volume of 0.2 ml per 20 grams of body weight. The antiulcerogenic ED50 values were calculated using percent protection as the response and a computer program (\"ED50\") based on the probit method of Finney (Finney, \"Probit Analysis\", Cambridge University Press, 1971). The comparative effectiveness (relative potency R. P.) of somatostatin and Compound F (first study) or somatostatin and Compound L (second study) was determined from the dose responses using an \"ED50\" computer program."}, "[11]": {"tested_on": "restraint ulcer formation", "settings": "cited from earlier work"}, "[12]": {"tested_on": "peptic ulcer bleeding", "settings": "infusion in man, Rasche et al. 1976; cited from earlier work"}, "[13]": {"settings": "1 hour after dosing, mucosal scrapings"}}, "note": "Non-standard residues stand in square brackets, D forms with d. Residues, ends and D or L forms follow the SMILES beside them. Gly(N-2-aminoethyl) = NCCNCC(=O)O"}
{"molecule": "Aminoethylglycyl-aminoethylglycyl-L-cysteinyl-L-lysyl-L-asparaginyl-L-phenylalanyl-L-phenylalanyl-D-tryptopyl-L-lysyl-L-threonyl-L-phenylalanyl-L-threonyl-L-seryl-L-cysteine [Compound N]", "values": [{"measurement": "gastric antisecretory activity after intragastric administration", "setting": "[1]", "result": "active after intragastric administration"}]}
{"molecule": "C[C@@H](O)[C@@H]1NC(=O)[C@H](CCCCN)NC(=O)[C@H](Cc2c[nH]c3ccccc23)NC(=O)[C@H](Cc2ccccc2)NC(=O)[C@H](Cc2ccccc2)NC(=O)[C@H](CC(N)=O)NC(=O)[C@H](CCCCN)NC(=O)CN(CCN)C(=O)[C@H](CO)NC(=O)[C@H]([C@@H](C)O)NC(=O)[C@H](Cc2ccccc2)NC1=O", "note": "[Compound D, Cyclo [Aminoethylglycyl-L-lysyl-L-asparaginyl-L-phenylalanyl-L-phenylalanyl-L-tryptophyl-L-lysyl-L-threonyl-L-phenylalanyl-L-threonyl-L-seryl]] (cyclo(FFWKTFTS[Gly(N-2-aminoethyl)]KN))", "values": [{"measurement": "gastric antisecretory activity (pH and acid concentration), in words, relative to somatostatin", "setting": "[2]", "result": "erratic activity"}]}
{"molecule": "C[C@H](N)C(=O)NCC(=O)N[C@@H](CS)C(=O)N[C@@H](CCCCN)C(=O)N[C@@H](CC(N)=O)C(=O)N[C@@H](Cc1ccccc1)C(=O)N[C@@H](Cc1ccccc1)C(=O)N[C@@H](Cc1c[nH]c2ccccc12)C(=O)N[C@@H](CCCCN)C(=O)N[C@H](C(=O)N[C@@H](Cc1ccccc1)C(=O)N[C@H](C(=O)N[C@@H](CO)C(=O)N[C@@H](CS)C(=O)O)[C@@H](C)O)[C@@H](C)O", "note": "[Compound B, HAlaGlyCysLysAsnPhePheTrpLysThrPheThrSerCysOH]", "values": [{"measurement": "gastric antisecretory activity (pH and acid concentration), in words, relative to somatostatin", "setting": "[2]", "result": "as active as the oxidized, cyclic somatostatin"}]}
{"molecule": "(D-Trp^8)-somatostatin", "values": [{"measurement": "potency in inhibition of pentagastrin-induced gastric acid secretion relative to somatostatin", "setting": "[3]", "result": "less potent"}, {"measurement": "potency in inhibition of growth hormone, insulin and glucagon relative to somatostatin", "setting": "[4]", "result": "higher potency than somatostatin"}]}
{"molecule": "C[C@H](NC(=O)CNCCN)C(=O)NCC(=O)N[C@@H](CS)C(=O)N[C@@H](CCCCN)C(=O)N[C@@H](CC(N)=O)C(=O)N[C@@H](Cc1ccccc1)C(=O)N[C@@H](Cc1ccccc1)C(=O)N[C@@H](Cc1c[nH]c2ccccc12)C(=O)N[C@@H](CCCCN)C(=O)N[C@H](C(=O)N[C@@H](Cc1ccccc1)C(=O)N[C@H](C(=O)N[C@@H](CO)C(=O)N[C@@H](CS)C(=O)O)[C@@H](C)O)[C@@H](C)O", "note": "[Compound E, Aminoethylglycyl-L-alanyl-glycyl-L-cysteinyl-L-lysyl-L-asparaginyl-L-phenylalanyl-L-phenylalanyl-L-tryptophyl-L-lysyl-L-threonyl-L-phenylalanyl-L-threonyl-L-seryl-L-cysteine]", "values": [{"measurement": "gastric antisecretory activity (pH and acid concentration), in words, relative to somatostatin", "setting": "[2]", "result": "severely decreases activity"}]}
{"molecule": "C[C@@H](O)[C@H](NC(=O)[C@H](Cc1ccccc1)NC(=O)[C@@H](NC(=O)[C@H](CCCCN)NC(=O)[C@H](Cc1c[nH]c2ccccc12)NC(=O)[C@H](Cc1ccccc1)NC(=O)[C@H](Cc1ccccc1)NC(=O)[C@H](CC(N)=O)NC(=O)[C@H](CCCCN)NC(=O)[C@H](CS)NC(=O)CNCCN)[C@@H](C)O)C(=O)N[C@@H](CO)C(=O)N[C@@H](CS)C(=O)N(CCN)CC(=O)O", "note": "[Compound J, Aminoethylglycyl-L-cysteinyl-L-lysyl-L-asparaginyl-L-phenylalanyl-L-phenylalanyl-L-tryptophyl-L-lysyl-L-threonyl-L-phenylalanyl-L-threonyl-L-seryl-L-cysteinyl-aminoethylglycine] (H-[Gly(N-2-aminoethyl)]CKNFFWKTFTSC[Gly(N-2-aminoethyl)]-OH)", "values": [{"measurement": "gastric antisecretory activity (pH and acid concentration), in words, relative to somatostatin", "setting": "[2]", "result": "less active than somatostatin"}]}
{"molecule": "C[C@H](N)C(=O)NCC(=O)N[C@H]1CSSC[C@@H](C(=O)O)NC(=O)[C@H](CO)NC(=O)[C@H]([C@@H](C)O)NC(=O)[C@H](Cc2ccccc2)NC(=O)[C@H]([C@@H](C)O)NC(=O)[C@H](CCCCN)NC(=O)[C@H](Cc2c[nH]c3ccccc23)NC(=O)[C@H](Cc2ccccc2)NC(=O)[C@H](Cc2ccccc2)NC(=O)[C@H](CC(N)=O)NC(=O)[C@H](CCCCN)NC1=O", "note": "[Compound A, somatostatin]", "values": [{"measurement": "effect on bleeding", "setting": "[5]", "result": "immediate cessation of the bleeding after 1 hour"}, {"measurement": "endoscopy at the end of treatment period", "setting": "[5]", "result": "two ulcers in the process of healing"}, {"measurement": "prevention of duodenal ulcers", "setting": "[6]", "result": "effectively prevented the formation of duodenal ulcers"}, {"measurement": "Fucose, gastric mucosal concentration (mean)", "setting": "[7]; [13]", "result": 46.2, "unit": "μg/total sample"}, {"measurement": "Hexose, gastric mucosal concentration (mean)", "setting": "[7]; [13]", "result": 235.3, "unit": "μg/total sample"}, {"measurement": "Total Protein, gastric mucosal concentration (mean)", "setting": "[7]; [13]", "result": 350.0, "unit": "μg/total sample"}, {"measurement": "gastric mucosal carbohydrates versus control, in words", "setting": "[7]; 1 hour after treatment", "result": "did not appear to influence concentration of carbohydrates"}, {"measurement": "gastric mucosal total protein versus control, in words", "setting": "[7]; 1 hour after treatment", "result": "produced an increment of the total protein"}, {"measurement": "effect on basal gastric secretion and gastrin release", "setting": "[8]", "result": "inhibits basal gastric secretion and gastrin release"}, {"measurement": "duration of inhibitory effects on gastric secretion", "setting": "[9]", "result": "short duration"}, {"measurement": "prevention of restraint-immersion induced gastric ulceration, in words", "setting": "[10]; first study, s.c. twice", "result": "effective in preventing restraint-immersion induced gastric ulceration"}, {"measurement": "antiulcerogenic ED50", "setting": "[10]; first study: s.c. just prior to restraint-immersion, repeated two hours later, 4 h restraint-immersion", "result": 0.35, "unit": "mg/kg"}, {"measurement": "ED50", "setting": "[10]; second study: administered only once just prior to restraint-immersion, 4 h", "result": 6.70, "unit": "mg/kg"}, {"measurement": "ulcers relative to untreated animals", "setting": "[11]; 100 μg linear protamine-zinc-somatostatin/rat s.c. before, 3 h and 6 h, after 9 hours of immobilization", "result": "1/5"}, {"measurement": "effect on restraint ulcer formation", "setting": "[11]; subcutaneous administration in rats, Zierden et al. 1976", "result": "prophylactic effect on restraint ulcer formation"}, {"measurement": "effect on peptic ulcer bleeding", "setting": "[12]", "result": "stop peptic ulcer bleeding"}]}
